We go through 2 compounds from US10508111B2, “6-[5-amino-6-(2-ethoxyethoxy)-imidazo[4,5-B]pyridin-3-yl]-nicotinonitrile derivatives and their use as IRAK inhibitors” (GALAPAGOS NV, priority 2015, dated 2019).

pIC50: −log10 of the molar value.

The pIC50 is −log10 of the IC50, conventionally taken in molar units.

Assay [1] has as its system IL-1β triggered MMP13 release in SW1353 cells. The assay can be described thus: SW1353 cellular selectivity assay, IL-1β trigger, MMP13 readout. Format: cell-based, human. Conditions: IL-1β trigger 1 ng/mL; for pIC50: Homo sapiens; for IL-1β trigger MMP13 PIN at 20 μM: percent inhibition at 20 μM compound. The source says:
The aim of this assay is to evaluate the selectivity of compounds of the invention for the activated TLR/IRAK-4 pathway in an in vitro human cellular assay setting. SW1353 cells are from a chondrocytic cell line and are responsive to both the interleukin 1 (IL-1) and the TNFα cytokine triggers. Both cytokine triggers induce the expression of interleukin 6 (IL-6) and MMP13 by these cells. IL-6 and MMP13 releases are used as readouts in this assay and represent a measure for the level of inhibition of the TLR/IRAK-4 pathway by the tested compound.
SW1353 cells are cultured in DMEM supplemented with 10% FBS and 1% Penicillin/Streptomycin. Cells are incubated at 37° C. in a humidified atmosphere of 5% CO2 and subcultured twice a week. During subculturing, trypsin-EDTA is used to detach the cells, followed by a neutralization step with cell culture medium. After centrifugation (1,000 rpm during 5 min), the pellet is resuspended in cell culture medium and cells are counted using an automated cell counter (Invitrogen Countess™).
Cells are used at passage 16 and plated at a density of 15,000 cells per well in 120 μL cell culture medium in 96-well culture plates. Cells are allowed to attach during overnight incubation.
SW1353 cells are pre-incubated with test compound by addition of 15 μL of 10× concentrated compound solution for 2 h at 37° C. and 5% CO2. The compounds are tested at different concentrations and prepared by 3-fold serial dilutions from the 10 mM stock solution in DMSO followed by a 1/50 dilution step in cell culture medium. Final test concentrations in the assay start from 20 μM, with subsequent 3-fold serial dilutions with equal final DMSO concentrations of 0.2%. After the compound pre-incubation step, the SW1353 cells are triggered by addition of 15 μL of 10× concentrated IL-1f (Peprotech, 200-01B) or TNFα trigger (Peprotech, 300-01A) to the wells with final assay volume of 150 μL per well and final trigger concentration of 1 ng/mL and 10 ng/mL, respectively. Negative controls are adjusted with equal DMSO concentrations without trigger. The assay plates are then incubated in a humidified incubator at 37° C. and 5% CO2. Cell supernatants are harvested 24 h and 48 h later by transferring the cell medium into a V-bottom polypropylene 96-well plate and stored at −80° C. until ELISA readout.
The levels of secreted MMP13 in the cell supernatants are quantified in an antibody capture activity assay. […] After incubation for 1 h at 37° C., fluorescence of the converted substrate is measured with a PerkinElmer EnVision® (excitation wavelength: 320 nm, emission wavelength: 405 nm).
All controls are measured within the linear range of the human IL-6 and MMP13 standard curve of the ELISA. […]

The target in a further assay is T1, Aurora B (Homo sapiens, UniProt Q96GD4).
T1 construct: purchased Carna BioSciences 05-102
T1 sequence (Q96GD4 whole entry): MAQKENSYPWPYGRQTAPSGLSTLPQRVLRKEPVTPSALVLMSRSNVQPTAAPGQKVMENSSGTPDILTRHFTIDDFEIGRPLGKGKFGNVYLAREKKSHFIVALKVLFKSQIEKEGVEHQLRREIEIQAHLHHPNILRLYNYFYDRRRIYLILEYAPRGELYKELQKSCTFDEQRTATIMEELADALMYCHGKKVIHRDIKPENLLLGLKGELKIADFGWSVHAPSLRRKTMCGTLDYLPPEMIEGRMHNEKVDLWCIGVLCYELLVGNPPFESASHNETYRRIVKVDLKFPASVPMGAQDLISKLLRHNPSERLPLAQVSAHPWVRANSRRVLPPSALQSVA
T1 sequence (Q9NQS7 803-918 partner limits assumed): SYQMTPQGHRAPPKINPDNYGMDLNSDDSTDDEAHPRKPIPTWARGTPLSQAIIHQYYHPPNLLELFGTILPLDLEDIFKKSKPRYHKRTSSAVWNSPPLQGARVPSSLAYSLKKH
The assay can be described thus: Kinase selectivity profiling (focused panel), radioactive filter plate assay: Aurora B. Format: biochemical. The following applies: Histone H3 peptide, 1.3 μM ATP, 90 min. The protocol:
(§1) The purpose of this assay is to determine the activity and selectivity of a compound of the invention on a selected range of human kinases which may result in undesirable side-effects when inhibited (Dy & Adjei 2013; Force & Kolaja 2011).
(§2) The IC50 value for off-target kinases is determined in radioactive filter plate assays. The principle of the assays consists in the measurement of incorporated ^33P into a peptide substrate upon phosphorylation by the kinase enzyme using [γ-^33P]ATP and ATP. Unincorporated ^33P is removed by loading the samples on a filter plate (using a harvester, PerkinElmer) and 6 subsequent washing steps. Incorporated ^33P in the peptide substrate is measured by a scintillation counter (Topcount, PerkinElmer) after addition of MicroScint™-20 (PerkinElmer, 6013621) to the filter plates.
5 μL of a water dilution series of test compound (starting from 20 μM or 6.6 μM highest concentration), from a 100% DMSO stock solution, 1/5 dilution, is added to the wells (final DMSO concentration of 1% in reaction assay). Enzyme and peptide substrate are used at optimized concentrations (cf. Table VI). The enzyme and substrate are diluted in assay buffer to a total volume of 11 μL. […] Samples are transferred to filter plates and incorporated radioactivity is measured using a scintillation counter. […]

The next assay deals with T2, ABL (Homo sapiens, UniProt P00519).
T2 construct: purchased Life Technologies P3049
T2 sequence (P00519 whole entry): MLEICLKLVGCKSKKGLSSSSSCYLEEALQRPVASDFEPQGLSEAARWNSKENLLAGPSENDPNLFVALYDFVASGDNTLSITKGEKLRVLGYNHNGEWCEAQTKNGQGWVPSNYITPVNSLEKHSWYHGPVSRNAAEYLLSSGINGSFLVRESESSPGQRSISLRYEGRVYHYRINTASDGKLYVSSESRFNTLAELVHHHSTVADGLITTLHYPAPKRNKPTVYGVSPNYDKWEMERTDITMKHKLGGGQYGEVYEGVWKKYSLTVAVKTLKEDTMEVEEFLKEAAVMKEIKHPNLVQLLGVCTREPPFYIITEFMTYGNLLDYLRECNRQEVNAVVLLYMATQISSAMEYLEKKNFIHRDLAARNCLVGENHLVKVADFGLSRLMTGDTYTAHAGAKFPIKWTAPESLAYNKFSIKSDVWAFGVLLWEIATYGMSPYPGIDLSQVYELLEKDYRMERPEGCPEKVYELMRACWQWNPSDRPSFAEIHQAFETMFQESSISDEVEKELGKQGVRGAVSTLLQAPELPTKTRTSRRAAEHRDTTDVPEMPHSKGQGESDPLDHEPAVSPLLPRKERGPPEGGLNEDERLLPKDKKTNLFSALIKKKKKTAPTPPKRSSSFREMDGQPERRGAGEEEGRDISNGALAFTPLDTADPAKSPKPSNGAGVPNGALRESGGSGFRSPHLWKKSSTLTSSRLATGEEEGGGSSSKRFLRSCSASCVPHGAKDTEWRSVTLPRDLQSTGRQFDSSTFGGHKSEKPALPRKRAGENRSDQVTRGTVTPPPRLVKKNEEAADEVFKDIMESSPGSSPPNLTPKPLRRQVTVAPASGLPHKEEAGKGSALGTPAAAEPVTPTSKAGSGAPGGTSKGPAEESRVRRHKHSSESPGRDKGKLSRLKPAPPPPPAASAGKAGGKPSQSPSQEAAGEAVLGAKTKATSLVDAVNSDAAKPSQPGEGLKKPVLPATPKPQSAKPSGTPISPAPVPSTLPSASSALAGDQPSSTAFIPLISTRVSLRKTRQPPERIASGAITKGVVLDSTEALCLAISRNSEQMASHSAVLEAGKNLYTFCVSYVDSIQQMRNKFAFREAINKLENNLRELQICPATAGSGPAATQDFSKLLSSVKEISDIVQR
The assay can be described thus: Kinase selectivity profiling (focused panel), radioactive filter plate assay: ABL. Format: biochemical. Conditions: PolyGT substrate, 0.5 μM ATP, 60 min. As for the experimental part: as §1, §2
5 μL of a water dilution series of test compound (starting from 20 μM or 6.6 μM highest concentration), from a 100% DMSO stock solution, 1/5 dilution, is added to the wells (final DMSO concentration of 1% in reaction assay). Enzyme and peptide substrate are used at optimized concentrations (cf. Table VI). The enzyme and substrate are diluted in assay buffer to a total volume of 11 μL. The reaction is started by addition of 9 μL of ATP+[γ-^33P]ATP, diluted in the same buffer as enzyme and substrate. The mixture is incubated at 30° C. The reaction is terminated by adding 25 μL of 150 mM phosphoric acid. Samples are transferred to filter plates and incorporated radioactivity is measured using a scintillation counter.
The incubation time, assay buffer composition, and concentrations of ATP, enzyme and substrate are reported in Table VI for example kinase off-target assays.
10 μM staurosporine (1% DMSO) is used as positive control (100% inhibition); vehicle (water+1% DMSO) as negative control (0% inhibition).

For the compound `N#Cc1ccc(-n2cnc3cc(OCCOCCO)c(NC4CCOCC4)nc32)nc1` [Compound 1, 6-[6-[2-(2-hydroxy-ethoxy)-ethoxy]-5-(tetrahydro-pyran-4-ylamino)-imidazo[4,5-b]pyridin-3-yl]-nicotinonitrile], in assay [1], the negative logarithm of the IC50 (pIC50) was 7.44 and the “IL-1β trigger MMP13 PIN at 20 μM” value is “[81%]”.

With `C[C@]1(O)CC[C@@H](Nc2nc3c(cc2OCCOCCO)ncn3-c2ccc(C#N)cn2)CC1` [Compound 12, 6-[6-[2-(2-hydroxyethoxy)ethoxy]-5-[((cis-1,4)-4-hydroxy-4-methylcyclohexyl)amino]imidazo[4,5-b]pyridin-3-yl]pyridine-3-carbonitrile], the pIC50 is 7.54 in assay [1], less than 5.73 on Aurora B and 6.86 on ABL. The “IL-1β trigger MMP13 PIN at 20 μM” value in assay [1] was “[75%]”.
